In brackets after ≈: the same amount, converted by molar mass. Where two headings read alike, the source gives them in different places.
Key:
HIV (HTLV-IIIB strain) = assay: microbe, parasite or virus in culture; type: cell-based; conditions: Human immunodeficiency virus 1, IIIB, MT4, 120 h
Outline: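 MT-4 cells (3.5×10^4 per well) were infected with HIV at 60 pfu per well in the presence of diluted compound and incubated for 5 days at 37° C. Surviving cells were then measured by MTT reduction, with the formazan dissolved in acidified isopropanol containing Triton X-100.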

[1] = cytotoxicity in MT-4 cells (MTT, culture medium in place of HIV); type: cell-based; conditions: human
Outline: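 MT-4 cells (3.5×10^4 per well) exposed to diluted compound with culture medium added instead of HIV, 5 days at 37° C in CO2. MTT added for 1 h, formazan dissolved in Triton X-100/acidified isopropanol. OD read at 560 nm (690 nm reference) and compared with control.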

[2] = biological target: T1, purified recombinant HIV-1 reverse transcriptase (Human immunodeficiency virus type 1 group M subtype B, UniProt P04585); assay: reverse transcriptase inhibition, poly(rA)/(dT) template primer, [3H]dTTP uptake; type: biochemical
T1 construct: purified recombinant HIV-1 reverse transcriptase; made in house; host or cells: Escherichia coli
Outline: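 Inhibition reported as percent reduction of [3H]dTTP incorporation relative to solvent control, after 1 h at 37 °C at pH 8.3. Recombinant RT from E. coli, poly(rA) template with oligo(dT) primer, 4 μM unlabeled dTTP as substrate; product collected on DEAE filter mats.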

[3] = MT-4 cells, 60 pfu HIV per well, 37° C., 5 days, MTT, Tables 1 and 2, read-out: EC50
[4] = MT-4 cells, no virus, 37° C., 5 days, MTT, Table 3, read-out: CC50

| SMILES | EC50 (HIV (HTLV-IIIB strain); [3]) | CC50 at 120 h ([1]; mt-4 cells) | IC50 [2] | EC50 (HIV (HTLV-IIIB strain)) | CC50 at 120 h [1, 4] |
| --- | --- | --- | --- | --- | --- |
| CC(C)c1nc(CO)n(Cc2cccc([N+](=O)[O-])c2)c1Sc1cc(Cl)cc(Cl)c1 [Compound 103b, 5-(3,5-dichlorophenylthio)-2-hydroxymethyl-4-isopropyl-1-(m-nitrobenzyl)-1H-imidazole] | 0.008 µg/mL (≈ 0.0177 µM) | 50 µg/mL (≈ 111 µM) | 25 µM | – | – |
| CC(C)c1nc(COC(N)=O)n(Cc2ccccc2)c1Sc1cccc([N+](=O)[O-])c1 [Compound I-47, 1-benzyl-2-carbamoyloxymethyl-4-isopropyl-5-(3-nitrophenylthio)-1H-imidazole] | – | – | 2.3 µM | 0.002 µg/mL (≈ 0.00469 µM) | 6.3 to 12.5 µg/mL (≈ 14.8 to 29.3 µM) |
| CC(C)c1nc(COC(N)=O)n(CF)c1Sc1cc(Cl)cc(Cl)c1 [Compound I-56, 2-carbamoyloxymethyl-5-(3,5-dichlorophenylthio)-1-fluoromethyl-4-isopropyl-1H-imidazole] | – | – | 2.37 µM | 0.008 µg/mL (≈ 0.0204 µM) | 10 to 100 µg/mL (≈ 25.5 to 255 µM) |
| CC(C)c1nc(CCO)n(Cc2ccc(N)cc2)c1Sc1cc(Cl)cc(Cl)c1 [Compound I-139, 1-(p-aminobenzyl)-5-(3,5-dichlorophenylthio)-2-hydroxyethyl-4-isopropyl-1H-imidazole] | < 0.008 µg/mL | 6.3 µg/mL (≈ 14.4 µM) | 3.67 µM | – | – |
| CC(C)c1nc(CO)n(CCCCc2ccccc2)c1Sc1cc(Cl)cc(Cl)c1 [Compound I-123, 5-(3,5-dichlorophenylthio)-2-hydroxymethyl-4-isopropyl-1-(4-phenylbutyl)-1H-imidazole] | 0.06 µg/mL (≈ 0.133 µM) | 12.5 µg/mL (≈ 27.8 µM) | 77.4 µM | – | – |
| Cc1nc(C(C)C(=O)O)c(Sc2cccc(Cl)c2)n1C (stereo not drawn) [Compound I-99] | 6.3 µg/mL (≈ 20.3 µM) | – | > 322 µM | – | > 100 µg/mL |
| CCn1c(CO)nc(C(C)C)c1Sc1cccc([N+](=O)[O-])c1 [Compound I-23, [1-ethyl-4-isopropyl-5-(3-nitrophenylthio)-1H-imidazol-2-yl]methanol] | 0.004 µg/mL (≈ 0.0124 µM) | – | 0.996 µM | – | 25 µg/mL (≈ 77.8 µM) |
| Cc1cc(C)cc(Sc2c(C(C)C)nc(C=O)n2C)c1 [Compound I-6, 5-(3,5-dimethylphenylthio)-4-isopropyl-1-methyl-1H-imidazole-2-carbaldehyde] | 0.03 to 0.06 µg/mL (≈ 0.104 to 0.208 µM) | – | 127 µM | – | 10 µg/mL (≈ 34.7 µM) |
| CCn1c(CO)nc(C(C)C)c1Sc1cc(Cl)cc(Cl)c1 [Compound I-25, 2-[5-(3,5-dichlorophenylthio)-1-ethyl-4-isopropyl-1H-imidazol-2-yl]methanol] | 0.004 µg/mL (≈ 0.0116 µM) | – | 1.39 µM | – | 10 to 100 µg/mL (≈ 29 to 290 µM) |
| CC(C)c1nc(CCCOC(N)=O)n(C)c1Sc1cc(Cl)cc(Cl)c1 [Compound I-148, 2-(3-carbamoyloxypropyl)-5-(3,5-dichlorophenylthio)-4-isopropyl-1-methyl-1H-imidazole] | 0.005 to 0.01 µg/mL (≈ 0.0124 to 0.0249 µM) | 6.3 to 12.5 µg/mL (≈ 15.7 to 31.1 µM) | 0.895 µM | – | – |
| CCn1c(CO)nc(C(C)C)c1Sc1cccc(F)c1 [Compound I-37, [1-ethyl-5-(3-fluorophenylthio)-4-isopropyl-1H-imidazol-2-yl]methanol] | 0.0005 µg/mL (≈ 0.0017 µM) | – | 0.204 µM | – | 25 µg/mL (≈ 84.9 µM) |
| CNC(=S)NCc1nc(C(C)C)c(Sc2cc(Cl)cc(Cl)c2)n1C [Compound I-89, 5-(3,5-dichlorophenylthio)-4-isopropyl-1-methyl-2-(N-methylthiocarbamoyl)aminomethyl-1H-imidazole] | 1 µg/mL (≈ 2.48 µM) | – | > 248 µM | – | 1 to 10 µg/mL (≈ 2.48 to 24.8 µM) |
| CC(C)c1nc(CN=C(N)N)n(C)c1Sc1cc(Cl)cc(Cl)c1 [Compound I-86, 2-diaminomethylenemethylaminomethyl-5-(3,5-dichlorophenylthio)-4-isopropyl-1-methylimidazole] | 1 µg/mL (≈ 2.69 µM) | 1 µg/mL (≈ 2.69 µM) | 33.6 µM | – | – |
| CC(C)c1nc(CN)n(C)c1Cc1cc(Cl)cc(Cl)c1 [Compound I-101, 2-aminomethyl-5-(3,5-dichlorobenzyl)-4-isopropyl-1-methyl-1H-imidazole] | 1 µg/mL (≈ 3.2 µM) | – | 80.7 µM | – | 10 to 100 µg/mL (≈ 32 to 320 µM) |
| C=CCn1c(COC(N)=O)nc(C(C)C)c1Sc1cccc([N+](=O)[O-])c1 [Compound I-48, 1-allyl-2-carbamoyloxymethyl-4-isopropyl-5-(3-nitrophenylthio)-1H-imidazole] | 0.016 µg/mL (≈ 0.0425 µM) | – | 1.2 µM | – | 25 to 50 µg/mL (≈ 66.4 to 133 µM) |
| CC(C)c1nc(CCOC(N)=O)n(Cc2ccccc2[N+](=O)[O-])c1Sc1cc(Cl)cc(Cl)c1 [Compound 128c, 2-(2-Carbamoyloxyethyl)-5-(3,5-dichlorophenylthio)-4-isopropyl-1-(o-nitrobenzyl)-1H-imidazole] | 0.25 µg/mL (≈ 0.491 µM) | 6.3 to 12.5 µg/mL (≈ 12.4 to 24.5 µM) | > 196 µM | – | – |
